Melting point, IC50 and GI50 data for 20 molecules are collected here from patent US8895744B2, “Alfa-carboline inhibitors of NPM-ALK, RET, and Bcr-Abl” (Universita' Degli Studi di Milano-Bicocca, priority 2008, dated 2014).

In data set [1] the target is T1, Recombinant Abl T315I protein (Homo sapiens, UniProt P00519, T315I).
T1 construct: made in house; host or cells: Sf9 cells (baculovirus)
The data set can be described thus: Abl T315I mutant kinase inhibitory activity, ELISA-based in vitro kinase assay. In kind it is biochemical. As to conditions: purified Abl T315I, 0.3 mM ATP. As for the experimental part:
(§1) Recombinant ALK kinase was expressed in Sf9 insect cells using the pBlueBacHis2C baculovirus vector system and purified using an anion exchange Fast Flow Q-sepharose column (Amersham-Pharmacia Biotech) followed by HiTrap™-nickel affinity column (Amersham-Pharmacia Biotech). Purified ALK protein was used to screen inhibitors in the ELISA-based kinase assay. A Nunc Immuno 96 well plate was incubated overnight at 37° C. with coating solution (125 μL/well) containing ALK peptide substrate ([…]) (SEQ ID NO: 1) at various concentrations in PBS. Wells were then washed with 200 μL of wash buffer (PBS-Tween 0.05%) and left to dry for at least 2 h at 37° C. The kinase reaction was performed in the presence of 50 mM Tris pH 7.5, 5 mM MnCl2, 5 mM MgCl2, 0.3 mM ATP and purified rALK in a total volume of 100 μL/well at 30° C. for 15 min. For inhibitor testing the reaction mix was preincubated with the inhibitor or solvent control for 10 min at room temperature before transferring to the ELISA plate. After the reaction wells were washed 5 times with 200 μL of wash buffer. Phosphorylated peptide was detected using 100 μL/well of a mouse monoclonal anti-phosphotyrosine antibody (clone 4G10 Upstate Biotech Ltd) diluted 1:2000 in PBS+4% BSA. After 30 min incubation at room temperature the antibody was removed and wells were washed as described above. 100 μL of a secondary antibody (anti-mouse IgG, Horseradish Peroxidase linked whole antibody, Amersham Pharmacia Biotech) diluted 1:1000 in PBS+4% BSA was added to each well and the plate was incubated again for 30 min at room temperature before washing as above. The plate was developed using 100 μL/well TMB Substrate Solution (Endogen) and the reaction was stopped by adding an equiv.ual volume of H2SO4 0.36 M. Finally, the absorbance was read at 450 nm using an Ultrospec® 300 spectrophotometer (Amersham-Pharmacia Biotech). The concentration of the test solution showing 50% inhibition as compared with the control was expressed as IC50 (μM).
37. Abl T315I Mutant Kinase Inhibitory Activity
(§2) Method: ELISA-Based In Vitro Kinase Assay
Recombinant Abl T315I protein was expressed in Sf9 cells using the pBlueBacHis2C baculovirus expression vector. Abl T315I was purified using an anion exchange Fast Flow Q-sepharose column (Amersham-Pharmacia Biotech) followed by HiTrap™-nickel affinity column (Amersham-Pharmacia Biotech). Purified Abl T315I was used in the ELISA-based kinase assay to screen inhibitors as described above. The kinase reaction was performed in the presence of 50 mM Tris pH 7.5, 1 mM MnCl2, 5 mM MgCl2, 0.3 mM ATP, peptide substrate ([…]) (SEQ ID NO: 1) and purified Abl T315I. The concentration of the test solution showing 50% inhibition as compared with the control was expressed as IC50 (μM).
For orientation: ELISA stands for enzyme-linked immunosorbent assay.

For data set [2], the target named is T2, Recombinant ALK kinase (Homo sapiens, UniProt Q9UM73).
T2 construct: made in house; host or cells: Sf9 insect cells (baculovirus)
As to the kind of experiment: ALK kinase inhibitory activity, ELISA-based in vitro kinase assay. In kind it is biochemical. As to conditions: purified rALK, 0.3 mM ATP, read-out: ALK IC50. As for the experimental part: 36. Alk Kinase Inhibitory Activity
as §2, §1

For data set [3], the system named is parent untransformed BaF3 cells. The data set can be described thus: Tritiated thymidine uptake cell proliferation assay, parental BaF3 (control). The format is cell-based. The settings on record: Mus musculus, 3[H]-thymidine uptake, 72 h, medium with IL-3, read-out: BaF parental IC50. As to the method:
(§3) Method: Tritiated Thymidine Uptake Cell Proliferation Assay
(§4) The following procedure was used with parent untransformed BaF3 cells, BaF3 cells transformed with the oncogenic fusion protein NPM/ALK, NPM/ALK positive SUDHL-1 cells, ALK-negative U937 cells, NPM/ALK positive KARPAS-299 cells. The parent untransformed BaF3 cells and Alk-negative U937 cells are used as controls. Cells were seeded in U-bottomed 96-well plates at 10 000 cells/well in a volume of 100 μL in supplemented medium. In the case of the parent untransformed BaF3 cells, the medium was supplemented with IL-3. Serial dilutions of inhibitors were added to the appropriate wells and volumes adjusted to 200 μL. Controls were treated with the equivalent volume of vehicle, DMSO, alone. Plates were incubated at 37° C. for 72 h. ^3[H]-thymidine (1 μCi/well) was added for the last 16 h of incubation. Cells were harvested on to paper filters and ^3[H]-thymidine incorporation was measured using a β scintillation counter (1430 MicroBeta, Wallac, Turku, Finland). The 50% inhibitory concentration (IC50) was defined as the concentration of inhibitor, expressed in micromolar, that gave a 50% decrease in ^3[H]-thymidine uptake compared with controls.
as §4, with “protein bcr-abl, Abl-negative” for “protein NPM/ALK, NPM/ALK positive SUDHL-1 cells, ALK-negative”, “cells, or Bcr-abl” for “cells, NPM/ALK”, “positive LAMA-84” for “positive KARPAS-299”, “and Abl-negative” for “and Alk-negative”, “in ^3H-thymidine” for “in ^3[H]-thymidine”
as §4, with “RET-PTC2, or RET-negative 11937” for “NPM/ALK, NPM/ALK positive SUDHL-1 cells, ALK-negative U937 cells, NPM/ALK positive KARPAS-299”, “RET-negative” for “Alk-negative”

Data set [4] deals with T3, BaF3 cells transformed with the oncogenic fusion protein NPM/ALK (Homo sapiens, UniProt Q9UM73).
T3 construct: fused on or other part: P06748 (Nucleophosmin)
As to the kind of experiment: Tritiated thymidine uptake cell proliferation assay, BaF3 NPM/ALK. The settings on record: 3[H]-thymidine uptake, 72 h; read-out: BaF NPM/ALK IC50. The format is cell-based. As for the experimental part: Inhibition of the proliferation of NPM/ALK positive cells
as §3, §4

T3 sequence (Q9UM73 whole entry, change not shown, the tested form may be a part): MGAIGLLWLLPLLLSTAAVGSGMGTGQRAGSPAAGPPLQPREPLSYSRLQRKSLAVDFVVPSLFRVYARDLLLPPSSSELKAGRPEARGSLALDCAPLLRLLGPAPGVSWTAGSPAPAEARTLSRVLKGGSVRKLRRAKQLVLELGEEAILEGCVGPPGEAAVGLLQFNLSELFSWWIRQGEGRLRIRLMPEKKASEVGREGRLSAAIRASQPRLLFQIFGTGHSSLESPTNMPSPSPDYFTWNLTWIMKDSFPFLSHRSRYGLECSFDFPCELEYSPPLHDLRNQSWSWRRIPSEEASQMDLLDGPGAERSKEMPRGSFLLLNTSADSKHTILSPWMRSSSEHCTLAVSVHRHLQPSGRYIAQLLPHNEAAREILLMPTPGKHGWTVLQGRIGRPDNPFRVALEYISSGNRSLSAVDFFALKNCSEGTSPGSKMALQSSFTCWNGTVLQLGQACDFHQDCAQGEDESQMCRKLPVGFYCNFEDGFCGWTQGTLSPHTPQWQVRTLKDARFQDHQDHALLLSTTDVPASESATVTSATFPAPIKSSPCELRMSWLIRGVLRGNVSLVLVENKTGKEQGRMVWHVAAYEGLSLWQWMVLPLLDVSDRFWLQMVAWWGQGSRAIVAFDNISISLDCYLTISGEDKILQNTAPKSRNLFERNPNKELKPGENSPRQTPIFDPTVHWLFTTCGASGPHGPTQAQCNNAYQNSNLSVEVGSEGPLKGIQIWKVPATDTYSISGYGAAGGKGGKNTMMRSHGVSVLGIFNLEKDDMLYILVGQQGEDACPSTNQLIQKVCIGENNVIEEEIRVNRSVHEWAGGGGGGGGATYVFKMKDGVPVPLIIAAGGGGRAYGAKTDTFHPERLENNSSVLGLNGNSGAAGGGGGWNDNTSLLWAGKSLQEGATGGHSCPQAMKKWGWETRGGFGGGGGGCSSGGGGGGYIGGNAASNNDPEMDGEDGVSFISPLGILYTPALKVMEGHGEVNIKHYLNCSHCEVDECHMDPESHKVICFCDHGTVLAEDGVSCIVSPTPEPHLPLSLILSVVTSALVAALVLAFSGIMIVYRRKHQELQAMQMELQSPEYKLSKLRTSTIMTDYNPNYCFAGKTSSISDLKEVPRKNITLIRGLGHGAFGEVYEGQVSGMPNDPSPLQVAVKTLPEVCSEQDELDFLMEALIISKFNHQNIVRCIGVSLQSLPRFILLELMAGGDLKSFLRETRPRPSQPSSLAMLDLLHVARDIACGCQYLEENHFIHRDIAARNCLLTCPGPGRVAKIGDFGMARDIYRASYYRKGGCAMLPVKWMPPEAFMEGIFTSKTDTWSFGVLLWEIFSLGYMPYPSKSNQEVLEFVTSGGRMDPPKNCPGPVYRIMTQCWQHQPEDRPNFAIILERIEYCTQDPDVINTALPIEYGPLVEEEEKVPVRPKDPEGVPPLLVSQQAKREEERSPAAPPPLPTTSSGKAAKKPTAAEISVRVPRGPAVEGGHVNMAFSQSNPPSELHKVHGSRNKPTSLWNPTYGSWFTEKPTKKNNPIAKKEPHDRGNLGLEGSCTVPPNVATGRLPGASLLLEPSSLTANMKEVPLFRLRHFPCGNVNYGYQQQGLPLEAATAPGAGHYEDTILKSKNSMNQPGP
T2 sequence (Q9UM73 19-1620): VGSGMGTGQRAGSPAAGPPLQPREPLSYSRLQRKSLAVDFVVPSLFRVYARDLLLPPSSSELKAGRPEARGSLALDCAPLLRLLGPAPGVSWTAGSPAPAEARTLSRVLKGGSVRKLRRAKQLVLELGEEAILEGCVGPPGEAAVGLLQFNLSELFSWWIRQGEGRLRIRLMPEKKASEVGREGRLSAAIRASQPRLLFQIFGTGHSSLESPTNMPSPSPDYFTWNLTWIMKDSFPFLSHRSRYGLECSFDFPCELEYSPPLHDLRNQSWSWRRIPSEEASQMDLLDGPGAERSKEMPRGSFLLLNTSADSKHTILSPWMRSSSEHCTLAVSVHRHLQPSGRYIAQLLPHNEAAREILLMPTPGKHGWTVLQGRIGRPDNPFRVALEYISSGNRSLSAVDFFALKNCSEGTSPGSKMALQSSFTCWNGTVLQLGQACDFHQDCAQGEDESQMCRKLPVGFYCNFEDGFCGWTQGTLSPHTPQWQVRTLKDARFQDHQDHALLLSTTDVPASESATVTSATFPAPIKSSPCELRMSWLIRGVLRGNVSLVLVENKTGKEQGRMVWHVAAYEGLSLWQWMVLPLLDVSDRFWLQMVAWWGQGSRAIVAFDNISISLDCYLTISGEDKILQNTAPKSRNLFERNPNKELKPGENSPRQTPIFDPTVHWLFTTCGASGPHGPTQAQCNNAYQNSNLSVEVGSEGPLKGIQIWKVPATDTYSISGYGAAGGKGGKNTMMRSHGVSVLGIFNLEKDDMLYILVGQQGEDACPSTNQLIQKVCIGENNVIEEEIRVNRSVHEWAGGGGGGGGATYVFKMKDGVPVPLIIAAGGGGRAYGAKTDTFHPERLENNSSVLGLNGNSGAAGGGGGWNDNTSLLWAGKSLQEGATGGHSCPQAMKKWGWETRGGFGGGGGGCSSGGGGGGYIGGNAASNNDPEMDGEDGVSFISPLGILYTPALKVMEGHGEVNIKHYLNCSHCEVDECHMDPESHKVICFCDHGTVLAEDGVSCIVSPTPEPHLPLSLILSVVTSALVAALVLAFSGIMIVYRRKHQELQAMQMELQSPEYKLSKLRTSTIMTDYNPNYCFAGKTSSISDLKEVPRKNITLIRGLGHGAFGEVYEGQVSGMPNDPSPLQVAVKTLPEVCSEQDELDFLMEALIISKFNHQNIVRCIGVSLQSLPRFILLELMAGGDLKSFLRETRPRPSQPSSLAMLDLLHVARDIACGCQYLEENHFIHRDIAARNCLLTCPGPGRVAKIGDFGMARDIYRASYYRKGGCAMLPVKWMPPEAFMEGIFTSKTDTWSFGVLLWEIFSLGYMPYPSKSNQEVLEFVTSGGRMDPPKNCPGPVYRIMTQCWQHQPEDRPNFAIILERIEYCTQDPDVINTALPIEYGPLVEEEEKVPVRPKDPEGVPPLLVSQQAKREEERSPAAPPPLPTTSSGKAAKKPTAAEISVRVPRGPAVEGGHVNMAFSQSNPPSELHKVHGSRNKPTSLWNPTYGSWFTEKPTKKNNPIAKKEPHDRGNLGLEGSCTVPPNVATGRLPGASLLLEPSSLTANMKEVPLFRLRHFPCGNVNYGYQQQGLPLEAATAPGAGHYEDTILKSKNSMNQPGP

On to `O=S(=O)(c1ccccc1)n1c2ccc(CCc3ccccc3)cc2c2cc(Cl)cnc21` [compound 61, 9-(benzenesulfonyl)-3-chloro-6-(2′-phenylethyl)-9H-pyrido[2,3-b]indole], for which the melting point (usually the temperature of the solid-liquid transition) fell in the range of 158 to 162 °C.

The molecule `O=S(=O)(c1ccccc1)n1c2ccc(Br)cc2c2ccc(Cl)nc21` [compound 19, 9-benzenesulfonyl-6-bromo-2-chloro-9H-pyrido[2,3-b]indole] returned a melting point of 204 to 206 °C.

Consider `Clc1ccnc2[nH]c3ccc(Br)cc3c12` [compound 10, 6-bromo-4-chloro-9H-pyrido[2,3-b]indole], for which the melting point was greater than 220 °C.

Consider `COc1ccc(-c2ccc3c(c2)c2ccc(-c4ccc(OC)cc4)nc2n3S(=O)(=O)c2ccccc2)cc1` [compound 36, 9-benzenesulfonyl-2,6-di(4-methoxyphenyl)-9H-pyrido[2,3-b]indole], for which the melting point was in the range of 206 to 208 °C.

Consider `O=C(O)CCC(=O)c1ccc2[nH]c3ncc(Cl)cc3c2c1` [compound 11, 4-(3-Chloro-9H-pyrido[2,3-b]indol-6-yl)-4-oxo-butyric acid], for which the melting point stood at 243 °C.

In turn, `Cc1ccc2c(n1)[nH]c1ccc(C(=O)O)cc12` [compound 6, 2-methyl-9H-pyrido[2,3-b]indol-6-carboxylic acid] had a melting point greater than 295 °C.

With `O=S(=O)(c1ccccc1)n1c2ccc(/C=C/c3ccccc3)cc2c2cc(Cl)cnc21` [compound 27, 9-benzenesulfonyl-3-chloro-6-(2′-phenylethenyl)-9H-pyrido[2,3-b]indole], the melting point fell in the range of 190 to 192 °C.

The molecule `COc1ccc(-c2ccc3c(c2)c2c(Cl)ccnc2n3S(=O)(=O)c2ccccc2)cc1` [compound 34, 9-benzenesulfonyl-4-chloro-6-(4-methoxyphenyl)-9H-pyrido[2,3-b]indole] yielded a melting point of 209 to 211 °C.

Regarding `Clc1ccc2c(n1)[nH]c1ccc(Br)cc12` [compound 9, 6-bromo-2-chloro-9H-pyrido[2,3-b]indole], the melting point was greater than 220 °C.

For `COc1ccc(-c2ccc3c(c2)c2c(/C=C/c4ccccc4)ccnc2n3S(=O)(=O)c2ccccc2)cc1` [compound 45, 9-benzenesulfonyl-6-(4-methoxyphenyl)-4-(2′-phenylethenyl)-9H-pyrido[2,3-b]indole], the melting point lay in the range of 190 to 192 °C.

For the molecule `Clc1cnc2[nH]c3ccc(-c4ccc(CN5CCOCC5)cc4)cc3c2c1` [R313, 3-chloro-6-(4-(morpholin-4-yl)methylphenyl)-9H-pyrido[2,3-b]indole], the IC50 – broadly, the point on the concentration scale where inhibition reaches its midpoint – in data set [1] is greater than 10 µM; in data set [2], 8.8 ± 2.7 µM; in data set [3], 0.5 µM. Further, the GI50 in data set [4] was 0.64 µM.

Take `CN1CCN(C(=O)CCC(=O)c2ccc3[nH]c4ncc(Cl)cc4c3c2)CC1` [R303, 1-(3-Chloro-9H-pyrido[2,3-b]indol-6-yl)-4-(4-methylpiperazin-1-yl)butane-1,4-dione]: the IC50 in data set [1] was determined as 87 µM; in data set [2], 93 ± 1 µM; in data set [3], 9.5 µM. The GI50 in data set [4] is 5.1 µM.

The molecule `COc1ccc(-c2ccc3c(c2)c2ccc(Cl)nc2n3S(=O)(=O)c2ccccc2)cc1` [compound 32, 9-benzenesulfonyl-2-chloro-6-(4-methoxyphenyl)-9H-pyrido[2,3-b]indole] showed a melting point of 176 to 178 °C.

Turning to `O=S(=O)(c1ccccc1)n1c2ccc(Br)cc2c2c(Cl)ccnc21` [compound 21, 9-benzenesulfonyl-6-bromo-4-chloro-9H-pyrido[2,3-b]indole], the melting point is 212 to 214 °C.

Turning to `COc1ccc(-c2ccc3c(c2)c2cc(Cl)cnc2n3S(=O)(=O)c2ccccc2)cc1` [compound 26, 9-benzenesulfonyl-3-chloro-6-(4-methoxyphenyl)-9H-pyrido[2,3-b]indole], the melting point is greater than 220 °C.

Consider `O=[N+]([O-])c1ccccc1Nc1ccc2c(n1)[nH]c1ccccc12` [R319, N-(2-nitrophenyl)-9H-pyrido[2,3-b]indol-2-amine], for which the IC50 turned out to be 16 µM in data set [1], 4.7 ± 0.2 µM in data set [2] and 44 µM in data set [3]. Also, in data set [4], the GI50 came out at 11 µM.

In turn, `O=S(=O)(c1ccccc1)n1c2ccc(Br)cc2c2cc(Cl)cnc21` [compound 20, 9-benzenesulfonyl-6-bromo-3-chloro-9H-pyrido[2,3-b]indole] displayed a melting point of 242 °C.

In turn, `O=S(=O)(c1ccccc1)n1c2ccc(/C=C/c3ccccc3)cc2c2c(Cl)ccnc21` [compound 35, 9-benzenesulfonyl-4-chloro-6-(2′-phenylethenyl)-9H-pyrido[2,3-b]indole] gave a melting point of 216 to 218 °C.

For the molecule `CCN(CC)CCSCC(=O)c1ccc2[nH]c3nc(Cl)ccc3c2c1` [R305, 1-(2-Chloro-9H-pyrido[2,3-b]indol-6-yl)-2-(N,N-diethylaminoethylsulfanyl)ethan-1-one], the IC50 in data set [1] is 16 µM; in data set [2], 17 ± 1 µM; in data set [3], 5.5 µM. For the same molecule, the GI50 in data set [4] was 5.2 µM.

Take `O=[N+]([O-])c1cccc(Nc2ccc3c(n2)[nH]c2ccccc23)c1` [R317, N-(3-nitrophenyl)-9H-pyrido[2,3-b]indol-2-amine]: the IC50 in data set [1] turned out to be 26 µM; in data set [2] it was 8.2 ± 2.1 µM; in data set [3] it was 6.3 µM. Besides, the GI50 in data set [4] came out at 2.6 µM.
